The text below walks through data of patent publication US5391571A, “Cholesterol ester hydrolase inhibitors” (priority 1993, dated 1995).

In assay [1] the target is T1, cholesterol esterase (EC 3.1.1.13) (Bos taurus, UniProt P30122).
T1 construct: purchased Sigma Chemical Company, St. Louis, Mo., USA C-1892; host or cells: bovine pancreas
Put plainly: in vitro inhibition of cholesteryl ester formation by cholesterol esterase. It counts as biochemical, bovine. The note with it: for IC50: 37° C., cholesterol and oleic acid, cholesterol esterase from bovine pancreas, read-out: IC50 (concentration that inhibits one-half of the ester formation). Here is the method: The ability of the compounds of this invention to inhibit the formation of cholesteryl esters and thereby interfere with and prevent assimilation of cholesterol into the lymphatic system and ultimately the blood stream was established by incubating the compounds at 37° C. with a mixture of cholesterol and oleic acid in the presence of buffered cholesterol esterase [(EC 3.1.1.13) Sigma Chemical Company, St. Louis, Mo., USA, No. C-1892, from bovine pancreas] and measuring the amount of ester formed, according to the procedure of Field, J. of Lipid Research, 25 389 (1984).

For another assay, the system named is cholesterol absorption. The experiment in a line: in vivo cholesterol absorption study, serum radioactivity after oral [4-^14C] cholesterol. The note with it: Rattus norvegicus, 6 h, normal rats, serum radioactivity at six hours; for ED50: read-out: ED50 (effective dose inhibiting fifty percent of the cholesterol absorption of the control animals). Here is the method:
The in vivo cholesterol absorption studies were conducted in normal rats by oral administration of the compound being tested in propylene glycol and olive oil followed by oral administration of [4-^14 C] cholesterol in propylene glycol and olive oil, otherwise following the procedure of Cayen et al., J. Lipid Res. 20 162 (1979). The serum radioactivity was measured at six hours after dosing. The results of this study are reported in the following Table, where available, as percent decrease compared to control and in terms of the effective dose (ED50) inhibiting fifty-percent of the absorption of the control animals.

[2] abbreviates: vs control, read-out: Decrease in [^14C] Cholesterol Absorption.

T1 sequence (P30122 19-597): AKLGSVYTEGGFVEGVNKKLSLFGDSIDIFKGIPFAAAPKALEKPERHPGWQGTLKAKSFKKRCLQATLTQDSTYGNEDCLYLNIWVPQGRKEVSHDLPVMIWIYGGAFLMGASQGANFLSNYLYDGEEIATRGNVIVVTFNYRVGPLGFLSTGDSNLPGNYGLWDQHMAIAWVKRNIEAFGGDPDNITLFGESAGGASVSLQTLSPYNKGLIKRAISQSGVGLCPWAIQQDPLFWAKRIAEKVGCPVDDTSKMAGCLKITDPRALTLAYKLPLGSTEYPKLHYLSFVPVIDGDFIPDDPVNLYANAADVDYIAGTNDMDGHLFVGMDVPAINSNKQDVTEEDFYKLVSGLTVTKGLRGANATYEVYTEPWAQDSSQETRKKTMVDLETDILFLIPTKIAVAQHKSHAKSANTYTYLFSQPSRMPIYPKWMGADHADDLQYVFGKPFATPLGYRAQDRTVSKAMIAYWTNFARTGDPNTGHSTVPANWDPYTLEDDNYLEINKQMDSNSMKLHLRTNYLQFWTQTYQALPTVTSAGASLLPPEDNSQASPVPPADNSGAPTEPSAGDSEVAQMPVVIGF

One may read the ED50 as the midpoint of the dose-response relation. `CCCCNC(=O)Oc1ccc(Oc2ccccc2)cc1` [Example 1, Butylcarbamic acid 4-phenoxyphenyl ester]: the IC50 in assay [1] amounted to 2 µM. Besides, the inhibition in vivo at 100 mg/kg in the assay with cholesterol absorption (setting [2]) was 82%. Moreover, the ED50 in the assay with cholesterol absorption was found to be 24 mg/kg. For `O=C(Oc1ccc(Oc2ccccc2)cc1)N1CCCCC1` [Example 2, 1-Piperidinecarboxylic acid 4-phenoxyphenyl ester], in assay [1], the IC50 turned out to be 0.13 µM. Also, the inhibition in vivo at 100 mg/kg in the assay on cholesterol absorption (setting [2]) amounted to 82%. Further, the ED50 with cholesterol absorption was found to be 24 mg/kg. On to `O=C(NCCCCc1ccccc1)Oc1ccc(Oc2ccccc2)cc1` [Example 3, (4-Phenylbutyl)carbamic acid 4-phenoxyphenyl ester], for which the IC50 in assay [1] was 16 µM. In the assay with cholesterol absorption (10 mg/kg, vs control, read-out: Decrease in [^14C] Cholesterol Absorption), the inhibition in vivo at 10 mg/kg was 70%. The ED50 in the assay on cholesterol absorption stood at 6 mg/kg. `CC(C)CCCC(C)NC(=O)Oc1ccc(Oc2ccccc2)cc1` (centres unmarked) [Example 4, (1,5-Dimethylhexyl)carbamic acid 4-phenoxyphenyl ester]: the IC50 in assay [1] was 5 µM. Further, the inhibition in vivo at 100 mg/kg in the assay on cholesterol absorption (setting [2]) turned out to be 89%. Moreover, the 50% effective dose (ED50) with cholesterol absorption was 13 mg/kg. As for `O=C(Oc1ccc(Oc2ccccc2)cc1)N1CCC(c2ccccc2)CC1` [Example 5, 4-Phenyl1-piperidinecarboxylic acid 4-phenoxyphenl ester], the IC50 in assay [1] worked out at 33 µM. On to `O=C(Oc1ccc(Oc2ccccc2)cc1)N1CCN(c2ccccc2)CC1` [Example 6, 4-Phenyl-1-piperazinecarboxylic acid 4-phenoxyphenyl ester], for which, in assay [1], the IC50 was 55 µM. As for `O=C(Oc1ccc(Oc2ccccc2)cc1)N1CCOCC1` [Example 7, 4-Morpholinecarboxylic acid 4-phenoxyphenol ester], the IC50 in assay [1] stood at 85 µM.

For the molecule `CC1CCN(C(=O)Oc2ccc(Oc3ccccc3)cc2)CC1` [Example 8, 4-Methyl-1-piperidinecarboxylic acid 4-phenoxyphenyl ester], in the assay with cholesterol absorption (setting [2]), the inhibition in vivo at 65 mg/kg is 90%. Besides, the ED50 in the assay on cholesterol absorption came to 10 mg/kg. As for `CN1CCN(C(=O)Oc2ccc(Oc3ccccc3)cc2)CC1` [Example 9, 4-Methyl-1-piperazinecarboxylic acid 4-phenoxyphenyl ester], the IC50 in assay [1] was above 100 µM. Moreover, the inhibition in vivo at 100 mg/kg with cholesterol absorption (setting [2]) is 40%. For `O=C(Oc1ccc(Oc2ccccc2)cc1)N1CCSCC1` [Example 10, 4-Thiomorpholinecarboxylic acid 4-phenoxyphenyl ester], the IC50 in assay [1] is 1.1 µM. In addition, the inhibition in vivo at 65 mg/kg in the assay with cholesterol absorption (setting [2]) came to 74%. In the assay on cholesterol absorption, the ED50 came to 14 mg/kg.

On to `CCCCCCCCNC(=O)Oc1ccc(Oc2ccccc2)cc1` [Example 11, Octylcarbamic acid 4phenoxyphenyl ester], for which the IC50 in assay [1] was 20 µM. On to `O=C(Oc1ccc(Oc2ccccc2)cc1)N1CCCC1` [Example 12, 1-Pyrrolidinecarboxylic acid 4-phenoxyphenyl ester], for which, in assay [1], the IC50 amounted to 0.3 µM. In addition, in the assay with cholesterol absorption (setting [2]), the inhibition in vivo at 65 mg/kg was 43%. Consider `O=C(NC1CCCCC1)Oc1ccc(Oc2ccccc2)cc1` [Example 13, Cyclohexylcarbamic acid 4-phenoxyphenyl ester], for which, in assay [1], the IC50 was 6.7 µM. Take `O=C(NCC1CCCCC1)Oc1ccc(Oc2ccccc2)cc1` [Example 14, Cyclohexylmethylcarbamic acid 4phenoxyphenyl ester]: the IC50 in assay [1] worked out at 9.3 µM.

Take `O=C(NC12CC3CC(CC(C3)C1)C2)Oc1ccc(Oc2ccccc2)cc1` [Example 15]: the IC50 in assay [1] is 17.5 µM. Moreover, the inhibition in vivo at 100 mg/kg in the assay on cholesterol absorption (setting [2]) amounted to 76%.

For the molecule `CC(C)(C)CC(C)(C)NC(=O)Oc1ccc(Oc2ccccc2)cc1` [Example 16, (1,1,3,3-Tetramethylbutyl)carbamic acid 4-phenoxyphenyl ester], the IC50 in assay [1] is above 100 µM. For the molecule `CCCCC(CC)NC(=O)Oc1ccc(Oc2ccccc2)cc1` (centres unmarked) [Example 17, (1-Ethylpentyl)carbamic acid 4-phenoxyphenyl ester], the IC50 in assay [1] came out at 13.3 µM. Turning to `CC(C)CC(C)NC(=O)Oc1ccc(Oc2ccccc2)cc1` (centres unmarked) [Example 18, (1,3-Dimethylbutyl)carbamic acid 4phenoxyphenyl ester], the IC50 in assay [1] came to 16.5 µM. Same read-out and setting: the figure for `CCCCNC(=O)Oc1ccc(Oc2ccc(C)cc2)cc1` [Example 19, Butylcarbamic acid 4-(4-methylphenoxy)phenyl ester] is 5.4 µM. With `CCCCNC(=O)Oc1ccc(Oc2ccc([N+](=O)[O-])cc2)cc1` [Example 20, Butylcarbamic acid 4-(4-nitrophenoxy)phenyl ester], the IC50 in assay [1] amounted to 7.6 µM. Moreover, in the assay on cholesterol absorption (setting [2]), the inhibition in vivo at 65 mg/kg is 27%. Turning to `CCCCNC(=O)Oc1ccc(Oc2ccc(Cl)cc2)cc1` [Example 21, Butylcarbamic acid 4-(4-chlorophenoxy)phenyl ester], the IC50 in assay [1] was found to be 6.1 µM. One may read the inhibition as the percentage by which the read-out fell short of the control. A higher inhibition goes with a strong effect. In turn, `CCCCNC(=O)Oc1c(C)cc(Oc2ccc(C)cc2)cc1C` [Example 22, Butylcarbamic acid 2,6-dimethyl-4-(4-methylphenoxy)phenyl ester] returned an inhibition at 30 µM in assay [1] (at 30 μM) of 20%. Consider `Cc1ccc(Oc2ccc(OC(=O)N3CCC(C)CC3)cc2)cc1` [Example 23, 4-Methyl-1-piperidinecarboxylic acid 4-(4-methylphenoxy)phenyl ester], for which the IC50 in assay [1] stood at 0.27 µM. In the assay on cholesterol absorption (setting [2]), the inhibition in vivo at 65 mg/kg amounted to 43%. With `Cc1ccc(Oc2ccc(OC(=O)NC(C)CCCC(C)C)cc2)cc1` (centres unmarked) [Example 24, (1,5-Dimethylhexyl)carbamic acid 4-(4-methylphenoxy)phenyl ester], the IC50 in assay [1] is 5.6 µM. As to `CC1CCN(C(=O)Oc2ccc(Oc3ccc(Cl)cc3)cc2)CC1` [Example 25, 4-Methyl-1-piperidinecarboxylic acid 4-(4-chlorophenoxy)phenyl ester], the IC50 in assay [1] was found to be 0.17 µM. The inhibition in vivo at 65 mg/kg in the assay with cholesterol absorption (setting [2]) stood at 61%. Consider `CCCCCC(C)NC(=O)Oc1ccc(Oc2ccccc2)cc1` (centres unmarked) [Example 26], for which the IC50 in assay [1] stood at 2.9 µM. As to `CC(C)CCCC(C)NC(=O)Oc1ccc(Oc2ccc(Cl)cc2)cc1` (centres unmarked) [Example 27, (1,5-Dimethylhexyl)carbamic acid 4-(4-chlorophenoxy)phenyl ester], the IC50 in assay [1] is 7.1 µM. With `CCCCNC(=O)Oc1ccc(Oc2ccccc2)cc1F` [Example 28, Butylcarbamic acid 2-fluoro-4-phenoxyphenyl ester], the IC50 in assay [1] is 1.9 µM. Take `CCCCNC(=O)Oc1ccc(Oc2ccc(OC)cc2)cc1` [Example 29, Butylcarbamic acid 4-(4-methoxyphenoxy)phenyl ester]: in assay [1], the IC50 was determined as 13 µM. `COc1ccc(Oc2ccc(OC(=O)N3CCC(C)CC3)cc2)cc1` [Example 30, 4-Methyl-1-piperidinecarboxylic acid 4-(4-methoxyphenoxy)phenyl ester]: the IC50 in assay [1] stood at 1.2 µM. In addition, in the assay on cholesterol absorption (setting [2]), the inhibition in vivo at 65 mg/kg was determined as 83%. As to `COc1ccc(Oc2ccc(OC(=O)NC(C)CCCC(C)C)cc2)cc1` (centres unmarked) [Example 31, (1,5-Dimethylhexyl)carbamic acid 4-(4-methoxyphenoxy)phenyl ester], in assay [1], the IC50 came out at 26 µM. Turning to `CCCCNC(=O)Oc1ccc(Oc2ccc(C(C)(C)C)cc2)cc1` [Example 32, Butylcarbamic acid 4-[4-(1,1-dimethylethyl)phenoxy]phenyl ester], the IC50 in assay [1] is above 100 µM. `CCCCCCNC(=O)Oc1ccc(Oc2ccccc2)cc1` [Example 36, Hexylcarbamic acid 4-phenoxyphenyl ester]: the IC50 in assay [1] was found to be 1.7 µM. Still for that read-out and setting: the figure for `CC(C)CCCC(C)NC(=O)Oc1ccc(Oc2ccccc2)cc1F` (centres unmarked) [Example 37, (1,5-Dimethylhexyl)carbamic acid 2-fluoro-4-phenoxyphenyl ester] is 1.4 µM.

Take `CC1(C)CCN(C(=O)Oc2ccc(Oc3ccccc3)cc2)CC1` [Example 38, 4,4-Dimethyl-1piperidinecarboxylic acid 4-phenoxyphenol ester]: the IC50 in assay [1] was 0.23 µM. For the same molecule, in the assay with cholesterol absorption (50 mg/kg, vs control, read-out: Decrease in [^14C] Cholesterol Absorption), the inhibition in vivo at 50 mg/kg worked out at 86%. As for `O=C(Oc1ccc(Oc2ccccc2)cc1)N1CCCCCC1` [Example 40, Hexahydro-1H-azepine-1-carboxylic acid 4-phenoxyphenyl ester], the IC50 in assay [1] was found to be 19 µM. Still for that read-out and setting: the value for `CCCCNC(=O)Oc1ccc(Oc2ccccc2)cc1C(=O)OC` [Example 50] was 5.1 µM; that for `O=C(Oc1ccc(Oc2ccccc2)cc1)N1CCC(CO)CC1` [Example 56, 4-(Hydroxymethyl)-1-piperidinecarboxylic acid 4-phenoxyphenyl ester] was 2.1 µM.

Turning to `O=C(Oc1ccc(Oc2ccccc2)cc1)N1CCC(CI)CC1` [Example 59, 4-(Iodomethyl)-1-piperidinecarboxylic acid 4-phenoxyphenyl ester], the IC50 in assay [1] was determined as 0.27 µM. Regarding `CCCCCCN(CCCCCC)CC1CCN(C(=O)Oc2ccc(Oc3ccccc3)cc2)CC1` [Example 62, 4-(Dihexylaminomethyl)-1-piperidinecarboxylic acid 4-phenoxyphenyl ester], the IC50 in assay [1] was 15 µM.
